For experiment [1], the target named is T1, HSD17B13 enzyme (Homo sapiens, UniProt Q7Z5P4).
T1 construct: His; made in house; host or cells: E. coli
T1 sequence (Q7Z5P4 20-300): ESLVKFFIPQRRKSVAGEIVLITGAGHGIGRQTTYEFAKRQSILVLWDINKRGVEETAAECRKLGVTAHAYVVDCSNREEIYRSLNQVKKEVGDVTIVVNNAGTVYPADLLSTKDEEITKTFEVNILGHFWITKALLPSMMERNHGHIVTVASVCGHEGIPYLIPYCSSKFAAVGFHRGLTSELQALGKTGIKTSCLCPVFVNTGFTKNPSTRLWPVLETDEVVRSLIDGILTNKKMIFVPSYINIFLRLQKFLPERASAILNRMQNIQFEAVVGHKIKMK
Briefly: NADH detection assay (fluorescence based Leukotriene B3 (LTB3) assay) for HSD17B13 activity. The experiment is classed as biochemical. To be noted: substrate 25 μM LTB3, 3 mM NAD+, 125 nM HSD17B13 enzyme, 1 hour at 26.5° C. The protocol: The fluorescence based Leukotriene B3 (LTB3) assay monitors the fluorescence of NADH, which is generated from NAD+ during the dehydrogenation of the substrate LTB3. The reactions were performed in a 384-well plates (Greiner; #655076) in a 20 μl reaction volume containing the following reagents (final concentrations): 25 μM LTB3 (Cayman; #20109); 3 mM NAD^+ (Sigma; #N0623); 125 nM HSD17B13 enzyme (in-house; E. coli expressed His-tagged, purified, soluble protein); 1 M potassium phosphate buffer, pH 7.4; and 1% DMSO. Reactions were initiated by co-addition of NAD+ and enzyme, and monitored for 1 hour at 26.5° C. Generation of NADH was measured as the fluorescence signal (Excitation at 340 nm and Emission at 445 nm) at 1 hour minus the baseline fluorescence at t=0. Fluorescence signals in the absence of LTB3 (negative control values), were subtracted from all values so that the results reflected substrate-dependent production of NADH. NADH standards were included to allow the conversion of relative fluorescence units into rates of enzyme activity. Enzyme activity in the presence of test compounds was expressed as a percentage of the uninhibited enzyme activity, and plotted versus inhibitor concentration. Non-linear regression was performed using a four-parameter logistic model and Microsoft Excel Solver® software. Ten concentrations of inhibitor were tested in duplicate (in the range of 30 μM-2.5 nM). Two independent concentration response assays were performed and the geometric mean is reported, =/−the SEM.

Experiment [2] concerns the target T1, HSD17B13 enzyme. As to the kind of experiment: LC/MS estrone detection assay (conversion of estradiol to estrone by HSD17B13). The class given is biochemical. To be noted: substrate 4 μM estradiol, 6 mM NAD+, 30 nM HSD17B13 enzyme, 2 hours at 26.5° C. Here is the method:
The liquid chromatography/mass spectrometry (LC/MS) estrone detection assay monitors the conversion of estradiol to estrone by HSD17B13. This assay was performed in a 96 wp format (Eppendorf deep well Plate 96/500) in an 80 μl reaction volume containing: 4 μM estradiol (E2; Cayman; Ser. No. 10/006,315); 6 mM NAD^+ (Sigma; #N0623), and 30 nM HSD17B13 enzyme (in-house; E. coli expressed His-tagged, purified, soluble protein), in a buffer containing 1M potassium phosphate buffer pH 7.4 and 0.5% vehicle (DMSO). Reactions were incubated for 2 hours at 26.5° C., and estradiol (E2) conversion to estrone (E1) was quantitated by LC-MS/MS based analyte detection for E1 using LCMS grade reagents. Reactions were terminated by the addition of two volumes of acetonitrile (MeCN; LCMS grade; CAS #75/05/8) containing deuterated (D4)-E1 as internal standard (Clear Synth; #CS-T-54273; 500 ng/mL final concentration). Samples were applied to pre-prepared Bond Elut-C18 extraction cartridges (3 mL; Agilent; Ser. No. 12/102,028), and washed and eluted in MeCN. Eluates were dried under nitrogen and re-suspended in 60% methanol (LCMS grade methanol; CAS #67/56/1) before submission for analysis. Standard curves for E1 were included for quantification. Analysis of samples was undertaken on a XBridge BEH C18 column (Waters; #186003033) using 0.1% Diethyl Amine in MeCN (mobile phase A; DEA CAS #109-89-7) and 0.1% Diethyl Amine in milli-Q water (mobile phase B) in a 3 min gradient up to 25% B. Analytes were detected in negative mode using MRM analysis, with E2 having a RT of 1.85 min and E1 having a RT of 2 min. Activity of the enzyme in the absence of NAD^+, was subtracted from samples to yield values for specific enzyme activity. Enzyme activity in the presence of test samples was expressed as a percentage of the uninhibited enzyme activity, and plotted versus inhibitor concentration. Non-linear regression was performed using the Morrison equation (see below) for tight binding inhibitors on GraphPad Prism software (GraphPad Software, La Jolla, Calif.). All assessments were undertaken in duplicate evaluations which were pooled during the extraction process and subsequently injected as duplicates for LC-MS/MS analysis. Y=Vo*(1−((((Et+X+Q)−(((Et+X+Q)^2)−4*Et*X)^0.5))/(2*Et))) Morrison equation:
Y=Activity in the presence of inhibitor; Vo=Activity in absence of inhibitor; Et=Total enzyme concentration; X=inhibitor concentration; and Q=(Ki*(1+(S/Km))), where Ki is the inhibition constant, Km is the Michaelis constant, and S is the substrate concentration.

Each structure is given as a SMILES string.

As a reminder, the IC50 is the midpoint of a concentration-inhibition curve.

For the compound `O=C(Nc1ccsc1C(=O)NC1COc2ccccc2C1)c1ccc(O)c(Cl)c1` (stereo not drawn) [Example 6, 3-(3-chloro-4-hydroxybenzamido)-N-(chroman-3-yl)thiophene-2-carboxamide], the IC50 in experiment [1] is no more than 1 µM; in experiment [2], no more than 0.1 µM.

Turning to `COc1ccccc1CCNC(=O)c1sccc1NC(=O)c1ccc(S(N)(=O)=O)c(Cl)c1` [Example 26, 3-(3-chloro-4-sulfamoylbenzamido)-N-(2-methoxyphenethyl)thiophene-2-carboxamide], the IC50 in experiment [1] and in experiment [2] was greater than 10 µM throughout.

Take `COc1ccccc1CCNC(=O)c1sccc1NC(=O)Cc1ccc(O)c(Cl)c1` [Example 20, 3-(2-(3-chloro-4-hydroxyphenyl)acetamido)-N-(2-methoxyphenethyl)thiophene-2-carboxamide]: the values for the IC50 in experiment [1] and in experiment [2] were greater than 10 µM and 0.1 to 1 µM, respectively.
